In one assay the test system is HT29 cells. Kind of assay: Inhibition of cell necrosis (CCK8 method), HT29 cells. The class given is cell-based, human. The following applies: Homo sapiens, HT-29, 16 h, HT29, Human TNF-α/AT-406/Z-VAD-FMK, 16 hours, CCK8. The protocol: (§1) In this assay example 2, under the condition of inducing programmed cell necrosis of HT29 and L929 cell lines, different concentrations of the test compounds were added to test the IC50 of the rescue effect of the test compounds on the programmed necrosis.
(§2) • Compounds: dissolved in DMSO to make a 10 mM solution; • TNF-α: initial concentration of 100 µg/mL; • Z-VAD-FMK: dissolved in DMSO to make a 10 mM solution; • AT-406: dissolved in DMSO to make a 10 mM solution. • Cell lines: HT29 cells were cultured in McCoy's 5A medium containing 10% fetal bovine serum, 100 U/mL penicillin, and 100 µg/mL streptomycin, and L929 cells were cultured in MEM medium containing 10% horse serum, 100 U/mL penicillin, and 100 µg/mL streptomycin.
(§3) 1. The test compound was dissolved in DMSO to form a stock solution, and a gradient dilution was performed; the solution was then diluted with the corresponding culture medium to obtain a solution with 10 times the working concentration.
(§4) 2. The cells in the logarithmic growth phase were diluted with culture medium to a specific cell concentration. 80 µL of the cell suspension was added to a 96-well plate, so that the cell densities of HT29 and L929 were 1.2*10^4 cells/well and 2.0*10^4 cells/well, respectively. The plate was cultured in a 37° C., 5% carbon dioxide incubator overnight.
(§5) 3. […] of the compound solution was added to each well of the 96-well plate inoculated with cells. The compounds to be tested were serially diluted 4-fold to obtain 9 concentrations in duplicate, starting from a maximum concentration of 10 μM. At the same time, a control group without compound addition was set up.
(§6) 4. After the cells were cultured for another 30 minutes, 10 μL of the inducer mixture was added to each well. The final concentrations of Human TNF-α, AT-406 and Z-VAD-FMK in HT29 cells were 20 ng/mL, […] and 20 μM, respectively; and the final concentrations of Murine TNF-α and Z-VAD-FMK in L929 cells were 20 ng/mL and 25 μM, respectively.
(§7) 5. The 96-well plate in which compounds and inducer were added was placed in a 37° C., 5% carbon dioxide incubator for further culture, wherein HT29 cells were cultured for 16 hours and L929 cells were cultured for 4-8 hours. Cell viability was detected by CCK8. GraphPad Prism software was used to prepare a dose-effect curve and IC50 was calculated.

The test system of a further assay is L929 cells. Kind of assay: Inhibition of cell necrosis (CCK8 method), L929 cells. The class given is cell-based, mouse. The following applies: 4-8 hours, CCK8. On the procedure:
as §1, §2, §3, §4, §5, §6, §7
Background: Formazan colour is commonly taken as a measure of viable cells.

Setting [1] is: Mus musculus, L929, L929, Murine TNF-α/Z-VAD-FMK.

The text below walks through data of patent US20250074892A1, “CARBONYL BRIDGED HETEROCYCLIC COMPOUND, AND COMPOSITION AND APPLICATION THEREOF” (BEIJING SCITECH-MQ PHARMACEUTICALS LIMITED, priority 2022, published 2025).

As to `CC(C)(O)CCOc1ccc(F)c(-c2ccnc(N3CCC(C(=O)N4N=CCC4c4cc(F)cc(F)c4)CC3)c2)c1` (racemic) [Example 21, (5-(3,5-difluorophenyl)-4,5-dihydro-1H-pyrazol-1-yl)(1-(4-(2-fluoro-5-(3-hydroxy-3-methylbutoxy)phenyl)pyridin-2-yl)piperidin-4-yl)methanone], the values for the IC50 in the assay on HT29 cells and in the assay with L929 cells (setting [1]) were no more than 10 nM and 10 to 50 nM, respectively.

With `CC(C)(O)COc1ccc(F)c(-c2ccnc(N3CCC(C(=O)N4N=CCC4c4cc(F)cc(F)c4)CC3)c2)c1` (racemic) [Example 23, (5-(3,5-difluorophenyl)-4,5-dihydro-1H-pyrazol-1-yl)(1-(4-(2-fluoro-5-(2-hydroxy-2-methylpropoxy)phenyl)pyridin-2-yl)piperidin-4-yl)methanone], the IC50 in the assay on HT29 cells and in the assay with L929 cells (setting [1]) was no more than 10 nM in each case.

For `CC(C)(O)CCCOc1ccc(F)c(-c2ccnc(N3CCC(C(=O)N4N=CCC4c4cc(F)cc(F)c4)CC3)c2)c1` (racemic) [Example 24, (5-(3,5-difluorophenyl)-4,5-dihydro-1H-pyrazol-1-yl)(1-(4-(2-fluoro-5-((4-hydroxy-4-methylpentyl)oxy)phenyl)pyridin-2-yl)piperidin-4-yl)methanone], the IC50 (as a rule, the concentration that gives 50% inhibition) is no more than 10 nM in the assay on HT29 cells and 10 to 50 nM in the assay on L929 cells (setting [1]).

For `CC(C)(O)CCOc1ccc(F)c(-c2ccnc(N3CCC(C(=O)N4N=CC[C@H]4c4cc(F)cc(F)c4)CC3)c2)c1` (racemic) [Example 41], the IC50 with HT29 cells was no more than 10 nM; in the assay with L929 cells (setting [1]), 10 to 50 nM.

Take `CC(C)(O)CCCOc1ccc(F)c(-c2ccnc(N3CCC(C(=O)N4N=CC[C@H]4c4cc(F)cc(F)c4)CC3)c2)c1` (racemic) [Example 43]: the IC50 was no more than 10 nM with HT29 cells and 10 to 50 nM in the assay with L929 cells (setting [1]).

On to `COCCOc1cccc(-c2ccnc(N3CCC(C(=O)N4N=CCC4c4cc(F)cc(F)c4)CC3)c2)c1` (stereo not drawn) [Example 1, (5-(3,5-difluorophenyl)-4,5-dihydro-1H-pyrazol-1-yl)(1-(4-(3-(2-methoxyethoxy)phenyl)pyridin-2-yl)piperidin-4-yl)methanone], for which the values for the IC50 in the assay with HT29 cells and with L929 cells (setting [1]) were 10 to 50 nM and 50 to 100 nM, respectively.

On to `COCCCOc1cccc(-c2ccnc(N3CCC(C(=O)N4N=CCC4c4cc(F)cc(F)c4)CC3)c2)c1` (stereo not drawn) [Example 2, (5-(3,5-difluorophenyl)-4,5-dihydro-1H-pyrazol-1-yl)(1-(4-(3-(3-methoxypropoxy)phenyl)pyridin-2-yl)piperidin-4-yl)methanone], for which the values for the IC50 with HT29 cells and with L929 cells (setting [1]) were 10 to 50 nM and 50 to 100 nM, respectively.

Consider `O=C(C1CCN(c2cc(-c3cccc(OC4CCOCC4)c3)ccn2)CC1)N1N=CCC1c1cc(F)cc(F)c1` (stereo not drawn) [Example 3, (5-(3,5-difluorophenyl)-4,5-dihydro-1H-pyrazol-1-yl)(1-(4-(3-((tetrahydro-2H-pyran-4-yl)oxy)phenyl)pyridin-2-yl)piperidin-4-yl)methanone], for which the IC50 in the assay on HT29 cells was 10 to 50 nM; in the assay on L929 cells (setting [1]), 50 to 100 nM.

For `COCCOc1ccc(C)c(-c2ccnc(N3CCC(C(=O)N4N=CCC4c4cc(F)cc(F)c4)CC3)c2)c1` (stereo not drawn) [Example 4, (5-(3,5-difluorophenyl)-4,5-dihydro-1H-pyrazol-1-yl)(1-(4-(5-(2-methoxyethoxy)-2-methylphenyl)pyridin-2-yl)piperidin-4-yl)methanone], the IC50 with HT29 cells and in the assay with L929 cells (setting [1]) was 10 to 50 nM in each case.

On to `COCCCOc1ccc(C)c(-c2ccnc(N3CCC(C(=O)N4N=CCC4c4cc(F)cc(F)c4)CC3)c2)c1` (stereo not drawn) [Example 5, (5-(3,5-difluorophenyl)-4,5-dihydro-1H-pyrazol-1-yl)(1-(4-(5-(3-methoxypropoxy)-2-methylphenyl)pyridin-2-yl)piperidin-4-yl)methanone], for which the IC50 in the assay on HT29 cells was in the range of 10 to 50 nM; in the assay with L929 cells (setting [1]) it was 50 to 100 nM.

On to `Cc1ccc(OC2CCOCC2)cc1-c1ccnc(N2CCC(C(=O)N3N=CCC3c3cc(F)cc(F)c3)CC2)c1` (stereo not drawn) [Example 6, (5-(3,5-difluorophenyl)-4,5-dihydro-1H-pyrazol-1-yl)(1-(4-(2-methyl-5-((tetrahydro-2H-pyran-4-yl)oxy)phenyl)pyridin-2-yl)piperidin-4-yl)methanone], for which the values for the IC50 in the assay on HT29 cells and in the assay with L929 cells (setting [1]) were 10 to 50 nM and 50 to 100 nM, respectively.

On to `O=C(C1CCN(c2cc(-c3cccc(OCCCCO)c3)ccn2)CC1)N1N=CCC1c1cc(F)cc(F)c1` (stereo not drawn) [Example 7, (5-(3,5-difluorophenyl)-4,5-dihydro-1H-pyrazol-1-yl)(1-(4-(3-(4-hydroxybutoxy)phenyl)pyridin-2-yl)piperidin-4-yl)methanone], for which the IC50 with HT29 cells and with L929 cells (setting [1]) was 10 to 50 nM in each case.

Take `CC(C)(O)CCCOc1cccc(-c2ccnc(N3CCC(C(=O)N4N=CCC4c4cc(F)cc(F)c4)CC3)c2)c1` (stereo not drawn) [Example 8, (5-(3,5-difluorophenyl)-4,5-dihydro-1H-pyrazol-1-yl)(1-(4-(3-((4-hydroxy-4-methylpentyl)oxy)phenyl)pyridin-2-yl)piperidin-4-yl)methanone]: the IC50 in the assay with HT29 cells and in the assay with L929 cells (setting [1]) was 10 to 50 nM each time.

With `Cc1ccc(OCCCCO)cc1-c1ccnc(N2CCC(C(=O)N3N=CCC3c3cc(F)cc(F)c3)CC2)c1` (stereo not drawn) [Example 9, (5-(3,5-difluorophenyl)-4,5-dihydro-1H-pyrazol-1-yl)(1-(4-(5-(4-hydroxybutoxy)-2-methylphenyl)pyridin-2-yl)piperidin-4-yl)methanone], the IC50 in the assay with HT29 cells was 10 to 50 nM; in the assay with L929 cells (L929, Murine TNF-α/Z-VAD-FMK) it was 10 to 50 nM.

Take `Cc1ccc(OCCCC(C)(C)O)cc1-c1ccnc(N2CCC(C(=O)N3N=CCC3c3cc(F)cc(F)c3)CC2)c1` (stereo not drawn) [Example 10, (5-(3,5-difluorophenyl)-4,5-dihydro-1H-pyrazol-1-yl)(1-(4-(5-((4-hydroxy-4-methylpentyl)oxy)-2-methylphenyl)pyridin-2-yl)piperidin-4-yl)methanone]: the IC50 in the assay on HT29 cells and in the assay with L929 cells (setting [1]) was no more than 10 nM each time.

As to `Cc1ccc(OCCC2CCOCC2)cc1-c1ccnc(N2CCC(C(=O)N3N=CCC3c3cc(F)cc(F)c3)CC2)c1` (stereo not drawn) [Example 11, (5-(3,5-difluorophenyl)-4,5-dihydro-1H-pyrazol-1-yl)(1-(4-(2-methyl-5-(2-(tetrahydro-2H-pyran-4-yl)ethoxy)phenyl)pyridin-2-yl)piperidin-4-yl)methanone], the IC50 in the assay on HT29 cells lay in the range of 10 to 50 nM; with L929 cells (setting [1]) it was 50 to 100 nM.

As for `O=C(C1CCN(c2cc(-c3cccc(OCCCO)c3)ccn2)CC1)N1N=CCC1c1cc(F)cc(F)c1` (stereo not drawn) [Example 12, (5-(3,5-difluorophenyl)-4,5-dihydro-1H-pyrazol-1-yl)(1-(4-(3-(3-hydroxypropoxy)phenyl)pyridin-2-yl)piperidin-4-yl)methanone], the IC50 is no more than 10 nM in the assay on HT29 cells and 50 to 100 nM with L929 cells (setting [1]).

`COCCCCOc1cccc(-c2ccnc(N3CCC(C(=O)N4N=CCC4c4cc(F)cc(F)c4)CC3)c2)c1` (stereo not drawn) [Example 13, (5-(3,5-difluorophenyl)-4,5-dihydro-1H-pyrazol-1-yl)(1-(4-(3-(4-methoxybutoxy)phenyl)pyridin-2-yl)piperidin-4-yl)methanone]: the IC50 in the assay on HT29 cells lay within 10 to 50 nM; with L929 cells (setting [1]), 50 to 100 nM.

With `O=C(C1CCN(c2cc(-c3cccc(OCC4CCOCC4)c3)ccn2)CC1)N1N=CCC1c1cc(F)cc(F)c1` (stereo not drawn) [Example 14, (5-(3,5-difluorophenyl)-4,5-dihydro-1H-pyrazol-1-yl)(1-(4-(3-((tetrahydro-2H-pyran-4-yl)methoxy)phenyl)pyridin-2-yl)piperidin-4-yl)methanone], the IC50 with HT29 cells and with L929 cells (setting [1]) was 10 to 50 nM each time.

On to `Cc1ccc(OCCCO)cc1-c1ccnc(N2CCC(C(=O)N3N=CCC3c3cc(F)cc(F)c3)CC2)c1` (stereo not drawn) [Example 15, (5-(3,5-difluorophenyl)-4,5-dihydro-1H-pyrazol-1-yl)(1-(4-(5-(3-hydroxypropoxy)-2-methylphenyl)pyridin-2-yl)piperidin-4-yl)methanone], for which the IC50 in the assay on HT29 cells was no more than 10 nM; in the assay with L929 cells (setting [1]), 10 to 50 nM.

As to `COCCOc1ccc(Cl)c(-c2ccnc(N3CCC(C(=O)N4N=CCC4c4cc(F)cc(F)c4)CC3)c2)c1` (stereo not drawn) [Example 16, (1-(4-(2-chloro-5-(2-methoxyethoxy)phenyl)pyridin-2-yl)piperidin-4-yl)(5-(3,5-difluorophenyl)-4,5-dihydro-1H-pyrazol-1-yl)methanone], the IC50 was 10 to 50 nM in the assay on HT29 cells and 50 to 100 nM in the assay on L929 cells (setting [1]).
